Reference: ChEMBL document CHEMBL1201861, “Genomics of Drug Sensitity in Cancer screening data, Wellcome Trust Sanger Institute”
pIC50: −log10 of the molar value.

Tests used:
Assay in all cases: cells
C32 = type: functional, cell-based, Homo sapiens; details: Homo sapiens, C32;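 further: cell viability assay, with IC50 reflecting inhibition of C32 cell growth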
Description: SANGER: Inhibition of human C32 cell growth in a cell viability assay.

COLO-741 = type: functional, cell-based, Homo sapiens; details: Homo sapiens, COLO-741
Description: SANGER: Inhibition of human COLO-741 cell growth in a cell viability assay.

NCI-H1563 = type: functional, cell-based, Homo sapiens; details: Homo sapiens, NCI-H1563;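 further: growth inhibition of human NCI-H1563 cells, read out with a cell viability assay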
Description: SANGER: Inhibition of human NCI-H1563 cell growth in a cell viability assay.

PANC-08-13 = type: functional, cell-based, Homo sapiens; details: Homo sapiens, PANC-08-13;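 further: cell growth inhibition, measured with a cell viability assay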
Description: SANGER: Inhibition of human PANC-08-13 cell growth in a cell viability assay.

MDA-MB-231 = type: functional, cell-based, Homo sapiens; details: Homo sapiens, MDA-MB-231
Description: SANGER: Inhibition of human MDA-MB-231 cell growth in a cell viability assay.

NCI-H1993 = type: functional, cell-based, Homo sapiens; details: Homo sapiens, NCI-H1993;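 further: growth inhibition of the cancer cell line, assessed with a cell viability assay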
Description: SANGER: Inhibition of human NCI-H1993 cell growth in a cell viability assay.

EFM-19 = type: functional, cell-based, Homo sapiens; details: Homo sapiens, EFM-19;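 further: growth inhibition of human EFM-19 cells, measured in a cell viability assay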
Description: SANGER: Inhibition of human EFM-19 cell growth in a cell viability assay.

HOS = type: functional, cell-based, Homo sapiens; details: Homo sapiens, HOS;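 further: growth inhibition of human HOS cells, read out with a cell viability assay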
Description: SANGER: Inhibition of human HOS cell growth in a cell viability assay.

EW-22 = type: functional, cell-based, Homo sapiens; details: Homo sapiens, EW-22;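 further: growth inhibition of the EW-22 cell line, measured with a cell viability readout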
Description: SANGER: Inhibition of human EW-22 cell growth in a cell viability assay.

D-423MG = type: functional, cell-based, Homo sapiens; details: Homo sapiens, D-423MG
Description: SANGER: Inhibition of human D-423MG cell growth in a cell viability assay.

MKN-7 = type: functional, cell-based, Homo sapiens; details: Homo sapiens, MKN-7;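 further: growth inhibition of MKN-7 cells, read out with a cell viability assay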
Description: SANGER: Inhibition of human MKN7 cell growth in a cell viability assay.

SNU-449 = type: functional, cell-based, Homo sapiens; details: Homo sapiens, SNU-449
Description: SANGER: Inhibition of human SNU-449 cell growth in a cell viability assay.

D-336MG = type: functional, cell-based, Homo sapiens; details: Homo sapiens, D-336MG
Description: SANGER: Inhibition of human D-336MG cell growth in a cell viability assay.

769-P = type: functional, cell-based, Homo sapiens; details: Homo sapiens, 769-P
Description: SANGER: Inhibition of human 769-P cell growth in a cell viability assay.

D-542MG = type: functional, cell-based, Homo sapiens; details: Homo sapiens, D-542MG
Description: SANGER: Inhibition of human D-542MG cell growth in a cell viability assay.

HMV-2 cell line = type: functional, cell-based, Homo sapiens; details: Homo sapiens, HMV-2;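 further: growth inhibition of HMV-II cells, read out with a cell viability assay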
Description: SANGER: Inhibition of human HMV-II cell growth in a cell viability assay.

BXPC-3 = type: functional, cell-based, Homo sapiens; details: Homo sapiens, BXPC-3;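 further: growth inhibition of human BxPC-3 cells, read out by a cell viability assay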
Description: SANGER: Inhibition of human BxPC-3 cell growth in a cell viability assay.

Panc1005 = type: functional, cell-based, Homo sapiens; details: Homo sapiens, Panc1005;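 further: growth inhibition of human PANC-10-05 cells, measured by a cell viability assay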
Description: SANGER: Inhibition of human PANC-10-05 cell growth in a cell viability assay.

RERF-LC-MS = type: functional, cell-based, Homo sapiens; details: Homo sapiens, RERF-LC-MS;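 further: growth inhibition of human RERF-LC-MS cells, read out by a cell viability assay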
Description: SANGER: Inhibition of human RERF-LC-MS cell growth in a cell viability assay.

SK-MEL3 = type: functional, cell-based, Homo sapiens, SK-MEL-3; details: Homo sapiens, SK-MEL3;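 further: growth inhibition of human SK-MEL-3 cells, read out with a cell viability assay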
Description: SANGER: Inhibition of human SK-MEL-3 cell growth in a cell viability assay.

U-118-MG = type: functional, cell-based, Homo sapiens; details: Homo sapiens, U-118-MG
Description: SANGER: Inhibition of human U-118-MG cell growth in a cell viability assay.

SAS = type: functional, cell-based, Homo sapiens; details: Homo sapiens, SAS;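 further: growth inhibition of SAS cells, read out with a cell viability assay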
Description: SANGER: Inhibition of human SAS cell growth in a cell viability assay.

COR-L105 = type: functional, cell-based, Homo sapiens; details: Homo sapiens, COR-L105;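 further: cell growth inhibition determined with a viability assay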
Description: SANGER: Inhibition of human COR-L105 cell growth in a cell viability assay.

RMG-I = type: functional, cell-based, Homo sapiens; details: Homo sapiens, RMG-I;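 further: growth inhibition of human RMG-I cells, read out with a cell viability assay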
Description: SANGER: Inhibition of human RMG-I cell growth in a cell viability assay.

CAL-85-1 = type: functional, cell-based, Homo sapiens; details: Homo sapiens, CAL-85-1;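 further: growth inhibition of human CAL-85-1 cells, read out with a cell viability assay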
Description: SANGER: Inhibition of human CAL-85-1 cell growth in a cell viability assay.

NCI-H2291 = type: functional, cell-based, Homo sapiens; details: Homo sapiens, NCI-H2291
Description: SANGER: Inhibition of human NCI-H2291 cell growth in a cell viability assay.

HCC1419 = type: functional, cell-based, Homo sapiens; details: Homo sapiens, HCC1419;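 further: growth inhibition of human HCC1419 cells, read out as cell viability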
Description: SANGER: Inhibition of human HCC1419 cell growth in a cell viability assay.

KYSE-150 cell line = type: functional, cell-based, Homo sapiens; details: Homo sapiens, KYSE-150;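 further: growth inhibition of human KYSE-150 cells, read out with a cell viability assay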
Description: SANGER: Inhibition of human KYSE-150 cell growth in a cell viability assay.

SK-MEL-28 = type: functional, cell-based, Homo sapiens; details: Homo sapiens, SK-MEL-28;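 further: growth inhibition of human SK-MEL-28 cells, read out with a cell viability assay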
Description: SANGER: Inhibition of human SK-MEL-28 cell growth in a cell viability assay.

KYSE-410 = type: functional, cell-based, Homo sapiens; details: Homo sapiens, KYSE-410;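 further: growth inhibition of KYSE-410 cells, measured through a cell viability readout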
Description: SANGER: Inhibition of human KYSE-410 cell growth in a cell viability assay.

DK-MG = type: functional, cell-based, Homo sapiens; details: Homo sapiens, DK-MG;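 further: growth inhibition of DK-MG cells, read out with a cell viability assay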
Description: SANGER: Inhibition of human DK-MG cell growth in a cell viability assay.

KOSC-2 = type: functional, cell-based, Homo sapiens; details: Homo sapiens, KOSC-2;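 further: growth inhibition of KOSC-2 cells, read out by a cell viability assay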
Description: SANGER: Inhibition of human KOSC-2 cell growth in a cell viability assay.

OAW-42 = type: functional, cell-based, Homo sapiens; details: Homo sapiens, OAW-42;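 further: growth inhibition of OAW-42 cells, read out with a cell viability assay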
Description: SANGER: Inhibition of human OAW-42 cell growth in a cell viability assay.

HSC-4 = type: functional, cell-based, Homo sapiens; details: Homo sapiens, HSC-4;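 further: growth inhibition of human HSC-4 cells, read out with a cell viability assay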
Description: SANGER: Inhibition of human HSC-4 cell growth in a cell viability assay.

NCI-H1793 = type: functional, cell-based, Homo sapiens; details: Homo sapiens, NCI-H1793;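 further: cell growth inhibition, read out by a cell viability assay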
Description: SANGER: Inhibition of human NCI-H1793 cell growth in a cell viability assay.

M059J = type: functional, cell-based, Homo sapiens; details: Homo sapiens, M059J;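 further: growth inhibition of M059J cells, read out with a cell viability assay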
Description: SANGER: Inhibition of human M059J cell growth in a cell viability assay.

GP5d = type: functional, cell-based, Homo sapiens; details: Homo sapiens, GP5d;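 further: growth inhibition of human GP5d cells, read out with a cell viability assay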
Description: SANGER: Inhibition of human GP5d cell growth in a cell viability assay.

NCI-H1573 = type: functional, cell-based, Homo sapiens; details: Homo sapiens, NCI-H1573;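 further: growth inhibition of NCI-H1573 cells, read out with a cell viability assay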
Description: SANGER: Inhibition of human NCI-H1573 cell growth in a cell viability assay.

MKN-1 = type: functional, cell-based, Homo sapiens; details: Homo sapiens, MKN-1;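 further: growth inhibition of human MKN1 cells, read out by a cell viability measurement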
Description: SANGER: Inhibition of human MKN1 cell growth in a cell viability assay.

GMS-10 = type: functional, cell-based, Homo sapiens; details: Homo sapiens, GMS-10;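 further: growth inhibition of GMS-10 cells, read out as cell viability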
Description: SANGER: Inhibition of human GMS-10 cell growth in a cell viability assay.

| Structure (SMILES) | pIC50 (C32) | pIC50 (COLO-741) | pIC50 (NCI-H1563) | pIC50 (PANC-08-13) | pIC50 (MDA-MB-231) | pIC50 (NCI-H1993) | pIC50 (EFM-19) | pIC50 (HOS) | pIC50 (EW-22) | pIC50 (D-423MG) | pIC50 (MKN-7) | pIC50 (SNU-449) | pIC50 (D-336MG) | pIC50 (769-P) | pIC50 (D-542MG) | pIC50 (HMV-2 cell line) | pIC50 (BXPC-3) | pIC50 (Panc1005) | pIC50 (RERF-LC-MS) | pIC50 (SK-MEL3) | other results |
| --- | --- | --- | --- | --- | --- | --- | --- | --- | --- | --- | --- | --- | --- | --- | --- | --- | --- | --- | --- | --- | --- |
| CC(C)c1ccccc1Cc1cc(C(=O)Nc2ccc(S(=O)(=O)c3ccccc3C(C)(C)C)cc2)c(O)c(O)c1O | 5.70 | 5.86 | 6.91 | 5.42 | 6.97 | 5.98 | 5.80 | 7.07 | 6.55 | 6.33 | 5.35 | 6.43 | 6.02 | 6.86 | 6.34 | 6.51 | 5.61 | 5.96 | 7.45 | 6.16 | pIC50 (U-118-MG): 6.72; pIC50 (SAS): 7.48; pIC50 (COR-L105): 6.15; pIC50 (RMG-I): 6.68; pIC50 (CAL-85-1): 5.84; pIC50 (NCI-H2291): 4.68; pIC50 (HCC1419): 6.04; pIC50 (KYSE-150 cell line): 6.33; pIC50 (SK-MEL-28): 5.86; pIC50 (KYSE-410): 6.06; pIC50 (DK-MG): 5.54; pIC50 (KOSC-2): 6.30; pIC50 (OAW-42): 6.31; pIC50 (HSC-4): 6.67; pIC50 (NCI-H1793): 6.13; pIC50 (M059J): 5.88; pIC50 (GP5d): 6.11; pIC50 (NCI-H1573): 5.15; pIC50 (MKN-1): 6.21; pIC50 (GMS-10): 6.35 |
| CC(C)CCN1c2nc(Nc3cc(F)c(O)c(F)c3)ncc2N(C)C(=O)C1C (centres undefined) | 5.40 | < 5.30 | < 5.30 | < 5.30 | 5.33 | < 5.30 | < 5.30 | 5.35 | < 5.30 | 5.32 | < 5.30 | < 5.30 | < 5.30 | < 5.30 | < 5.30 | 5.66 | < 5.30 | < 5.30 | < 5.30 | < 5.30 | pIC50 (U-118-MG): < 5.30; pIC50 (SAS): < 5.30; pIC50 (COR-L105): < 5.30; pIC50 (RMG-I): < 5.30; pIC50 (CAL-85-1): < 5.30; pIC50 (NCI-H2291): < 5.30; pIC50 (HCC1419): < 5.30; pIC50 (KYSE-150 cell line): 5.67; pIC50 (SK-MEL-28): < 5.30; pIC50 (KYSE-410): < 5.30; pIC50 (DK-MG): < 5.30; pIC50 (KOSC-2): 5.95; pIC50 (OAW-42): < 5.30; pIC50 (NCI-H1793): < 5.30; pIC50 (M059J): 5.43; pIC50 (GP5d): < 5.30; pIC50 (NCI-H1573): < 5.30; pIC50 (MKN-1): 5.49; pIC50 (GMS-10): 5.51 |
| Nc1cccc2c1CN(C1CCC(=O)NC1=O)C2=O (centres undefined) [LENALIDOMIDE] | < 5.30 | < 5.30 | < 5.30 | < 5.30 | < 5.30 | < 5.30 | < 5.30 | < 5.30 | < 5.30 | < 5.30 | < 5.30 | < 5.30 | < 5.30 | < 5.30 | < 5.30 | < 5.30 | < 5.30 | < 5.30 | < 5.30 | < 5.30 | pIC50 (U-118-MG): < 5.30; pIC50 (SAS): < 5.30; pIC50 (COR-L105): < 5.30; pIC50 (RMG-I): < 5.30; pIC50 (CAL-85-1): < 5.30; pIC50 (NCI-H2291): < 5.30; pIC50 (HCC1419): < 5.30; pIC50 (KYSE-150 cell line): < 5.30; pIC50 (SK-MEL-28): < 5.30; pIC50 (KYSE-410): < 5.30; pIC50 (DK-MG): < 5.30; pIC50 (KOSC-2): < 5.30; pIC50 (OAW-42): < 5.30; pIC50 (HSC-4): < 5.30; pIC50 (NCI-H1793): < 5.30; pIC50 (M059J): < 5.30; pIC50 (GP5d): < 5.30; pIC50 (NCI-H1573): < 5.30; pIC50 (MKN-1): < 5.30; pIC50 (GMS-10): < 5.30 |
| Cc1cn(-c2cc(NC(=O)c3ccc(C)c(Nc4nccc(-c5cccnc5)n4)c3)cc(C(F)(F)F)c2)cn1 [NILOTINIB] | < 5.70 | < 5.70 | < 5.70 | < 5.70 | < 5.70 | < 5.70 | < 5.70 | < 5.70 | < 5.70 | < 5.70 | < 5.70 | < 5.70 | < 5.70 | < 5.70 | < 5.70 | 6.13 | < 5.70 | < 5.70 | < 5.70 | < 5.70 | pIC50 (U-118-MG): < 5.70; pIC50 (SAS): < 5.70; pIC50 (COR-L105): < 5.70; pIC50 (RMG-I): < 5.70; pIC50 (CAL-85-1): < 5.70; pIC50 (NCI-H2291): < 5.70; pIC50 (HCC1419): < 5.70; pIC50 (KYSE-150 cell line): < 5.70; pIC50 (SK-MEL-28): < 5.70; pIC50 (KYSE-410): < 5.70; pIC50 (DK-MG): < 5.70; pIC50 (KOSC-2): < 5.70; pIC50 (OAW-42): < 5.70; pIC50 (HSC-4): < 5.70; pIC50 (NCI-H1793): < 5.70; pIC50 (M059J): < 5.70; pIC50 (GP5d): < 5.70; pIC50 (NCI-H1573): < 5.70; pIC50 (MKN-1): < 5.70; pIC50 (GMS-10): < 5.70 |
| CO[C@H]1C[C@@H]2CC[C@@H](C)[C@@](O)(O2)C(=O)C(=O)N2CCCC[C@H]2C(=O)O[C@H]([C@H](C)C[C@@H]2CC[C@@H](OC(=O)C(C)(CO)CO)[C@H](OC)C2)CC(=O)[C@H](C)/C=C(\C)[C@@H](O)[C@@H](OC)C(=O)[C@H](C)C[C@H](C)/C=C/C=C/C=C/1C [TEMSIROLIMUS] | 7.33 | < 6.70 | 6.98 | < 6.70 | < 6.70 | < 6.70 | 7.09 | 6.84 | < 6.70 | < 6.70 | < 6.70 | < 6.70 | 7.12 | < 6.70 | 7.11 | < 6.70 | < 6.70 | 6.81 | < 6.70 | < 6.70 | pIC50 (U-118-MG): 7.78; pIC50 (SAS): < 6.70; pIC50 (COR-L105): 7.26; pIC50 (RMG-I): < 6.70; pIC50 (CAL-85-1): < 6.70; pIC50 (NCI-H2291): < 6.70; pIC50 (HCC1419): 7.59; pIC50 (KYSE-150 cell line): < 6.70; pIC50 (SK-MEL-28): 6.88; pIC50 (KYSE-410): 6.74; pIC50 (DK-MG): < 6.70; pIC50 (KOSC-2): 6.78; pIC50 (OAW-42): < 6.70; pIC50 (HSC-4): > 9.11; pIC50 (NCI-H1793): 7.34; pIC50 (M059J): 6.93; pIC50 (GP5d): < 6.70; pIC50 (NCI-H1573): < 6.70; pIC50 (MKN-1): < 6.70; pIC50 (GMS-10): < 6.70 |
| CS(=O)(=O)c1ccc(C(=O)Nc2ccc(Cl)c(-c3ccccn3)c2)c(Cl)c1 [VISMODEGIB] | < 5.00 | < 5.00 | < 5.00 | < 5.00 | < 5.00 | < 5.00 | < 5.00 | < 5.00 | < 5.00 | < 5.00 | < 5.00 | < 5.00 | < 5.00 | < 5.00 | 5.73 | < 5.00 | < 5.00 | < 5.00 | < 5.00 | < 5.00 | pIC50 (U-118-MG): < 5.00; pIC50 (SAS): < 5.00; pIC50 (COR-L105): < 5.00; pIC50 (RMG-I): < 5.00; pIC50 (CAL-85-1): < 5.00; pIC50 (NCI-H2291): < 5.00; pIC50 (HCC1419): < 5.00; pIC50 (KYSE-150 cell line): < 5.00; pIC50 (SK-MEL-28): < 5.00; pIC50 (KYSE-410): < 5.00; pIC50 (DK-MG): < 5.00; pIC50 (KOSC-2): < 5.00; pIC50 (OAW-42): < 5.00; pIC50 (HSC-4): < 5.00; pIC50 (NCI-H1793): < 5.00; pIC50 (M059J): < 5.00; pIC50 (GP5d): < 5.00; pIC50 (NCI-H1573): < 5.00; pIC50 (MKN-1): < 5.00; pIC50 (GMS-10): < 5.00 |
